Where no end group is shown, it is not given here.
Assays:
[1] = system: PMAIP1 (NOXA) and BBC3 (PUMA); assay: ddPCR of TP53 target genes; assay type: cell-based, human
Method: Primers and probes were designed specifically for ddPCR for human BBC3 (Bio-Rad Cat# 10031255, Assay ID dHsaCPE5034069) and PMAIP1(Bio-Rad Cat# 10031252, Assay ID dHsa5037552) genes. RNA was extracted using the Qiagen RNeasy Kit (Cat# 74004). 5 ng of RNA was used for 22 µl PCR reaction mixtures using the One-Step RT-ddPCR Advanced Kit for Probes (Bio-Rad Cat# 1864022) following the manufacturer's protocol. ddPCR droplets were generated using the Bio-Rad Automated Droplet Generator. Plate containing ddPCR droplets was sealed and RT-PCR was performed using the C-1000 Thermal Cycler (Bio-Rad). ddPCR was performed in the QX200 Droplet Digital PCR System (Bio-Rad). Analysis of the ddPCR data was performed using QX200 analysis software.

FOXO4-TP53 interaction = assay: Co-immunoprecipitation of Myc-FOXO4 for p53; assay type: cell-based, human; details: senescent HCT116-Myc-FOXO4 cells, 8 µM ES2, 1 hour
Method: HCT116 cells were transduced with FOXO4 (NM_005938) human tagged ORF Lentiviral Particles (Origene, Cat# RC213185L1V) at 10^6 TU/mL. Cells were then cultured for seven passages. HCT116-Myc-FOXO4 were made senescent using 200 nM Doxorubicin at the final cell concentration of 24 million cells. Dividing cells were plated at concentration of 80 million cells. The following day, cells were treated with 8 µM ES2 for 0 or 1 hour. Nuclear protein was then isolated using NE-PER™ Nuclear and Cytoplasmic Extraction Reagents kit (Cat# 78833) then quantified via Pierce^TM BCA Protein Assay Kit (Cat# 23225) according to manufacturer's instructions. 400 µg of each nuclear lysate and 10 µL of provided positive control was used in the Thermo Scientific™ Pierce™ c-Myc-Tag IP/Co-IP Kit (Cat# 23620). The eluted protein (20 µL) was then loaded onto Bolt™ 4 to 12%, Bis-Tris, 1.0 mm, Mini Protein Gel, 10-well (Cat# NW04120BOX) and run at 120V for 60 minutes in 1X Invitrogen™ Bolt™ MOPS SDS Running Buffer using the Mini Gel Tank (Cat. A25977). Protein was then transferred onto 0.4 µm PVDF according to manufacturer protocol. The membrane was then blocked in 5% non-fat milk in 1x TBS-T (Cat# 03-500-537) for 60 minutes. […]

PRKGGRRRRAWGRRRRRRRRRRRRRRAPRKRLTLA [ES2]
NOXA and PUMA levels in senescent cells ([1]; 30 minutes after ES2 treatment, n=6, p<0.001): significant increase in levels
NOXA and PUMA levels in dividing cells ([1]; dividing cells): no response
TP53 band co-immunoprecipitated with Myc-FOXO4 (FOXO4-TP53 interaction): a band at 53kDa that is eliminated after treating with ES2
